Activity calls are given as the source filed them. How the calls were made is not given here.

In the assay the test system is S. cerevisiae SKN7-toxicity growth rescue, plate reader. The assay is described as follows: SKN7 mediated toxicity in Saccharomyces cerevisiae, growth rescue counterscreen, dose confirmation (AID 624258).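 Further: growth read after three days of incubation at 30 °C.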
Regarding `c1c[nH]c(CN2CCN(Cc3ncc[nH]3)CC2)n1`, the AC40 was 1.7 µM.

As to `Cc1cccc(NS(=O)(=O)c2ccc(-c3cnc(C4CC4)o3)cc2)c1C`, the AC40 was 12.6 µM.

In the case of `O=C(Nc1ccc(Cl)c(Cl)c1)C1CCCCC1`, the AC40 was 0.565 µM.

As for `CC(C)(C)n1nc(-c2ccc(Cl)cc2)c2c(N)ncnc21`, the AC40 is 12.6 µM.

`COc1ccc(-c2csc(NC(=O)c3ccccc3F)c2C(=O)O)cc1`: the AC40 is 0.644 µM.

Regarding `O=[N+]([O-])c1cc(C(F)(F)F)ccc1NCCc1c[nH]c2ccc(O)cc12`, the AC40 was 1.11 µM.

Regarding `O=S(=O)(c1cc(C(F)(F)F)ccc1Cl)N1CCN(c2ncnc3ccccc23)CC1`, the AC40 was 17.1 µM.

With `Cc1ccc(CCNc2ncnc(Cl)c2N)cc1`, the AC40 is 3.87 µM.

As to `O=Cc1cc(N=Nc2ccccc2Cl)ccc1O`, the AC40 is 0.446 µM.

Regarding `CCOC(=O)C1=C(Cc2ccc(OC)cc2)C(=O)c2ccccc2C1=O`, the AC40 was 2.67 µM.

On to `Cc1ccc(C)c(NS(=O)(=O)c2cc(C(=O)N3CCc4ccccc4C3)ccc2Cl)c1`, for which the AC40 is 6.58 µM.

Consider `O=C(O)c1ccc(N/N=C/C=C/c2ccccc2)cc1`, for which the AC40 was 1.11 µM.

`CCN(CC)c1ccc(/C=N/NC(=O)c2c(Cl)cnn2C)c(O)c1`: the AC40 is 0.878 µM.

Turning to `CC(=O)c1ccc(Sc2ccccc2)c([N+](=O)[O-])c1`, the AC40 is > 19.5 µM (inactive).

For the compound `O=[N+]([O-])c1ccc(N=Nc2ncc[nH]2)cc1`, the AC40 was 6.08 µM.

Turning to `Cc1ccc2c(C)c3ccc4ccccc4c3c[n+]2c1`, the AC40 is 0.247 µM.

Turning to `CCCC1CCC(c2ccc(/C(N)=N/O)cc2)CC1` (stereo not drawn), the AC40 is 0.476 µM.

Regarding `Cc1ccnc(N2C(=O)c3cccc4c([N+](=O)[O-])ccc(c34)C2=O)c1`, the AC40 is 0.166 µM.

In the case of `NNC(=O)c1ccc2nc(-c3ccc(Br)cc3)cn2c1`, the AC40 was 13.1 µM.

With `O=C(CCc1ccccc1)NNC(=S)NC(=O)c1ccccc1`, the AC40 was 0.923 µM.

As to `Cc1cccc(C)c1NS(=O)(=O)c1ccc(-c2cnc(C3CC3)o2)cc1`, the AC40 is 7.85 µM.

On to `O=NN(CCc1ccncc1)c1ccc(OCc2ccccc2)cc1`, for which the AC40 is 2.98 µM.

As to `Cc1ccc(C(C[N+](=O)[O-])c2c(N)n(C)c(=O)n(C)c2=O)cc1` (stereo not drawn), the AC40 was 4.96 µM.

Regarding `O=C(Oc1cc2oc(=O)cc(-c3ccccc3)c2cc1Cl)C1CCCCC1`, the AC40 was 8.04 µM.

As for `COC(=O)c1ccc(SC2CCCCC2)c([N+](=O)[O-])c1`, the AC40 is 1.47 µM.

On to `O=C(NCC1CC1(Cl)Cl)Nc1ccc(Cl)c(Cl)c1` (stereo not drawn), for which the AC40 was > 6.8 µM (inactive).

`CCc1nc2ccccc2c(=O)n1NC(=O)c1c(O)c2ccccc2n(CC)c1=O`: the AC40 is 2.09 µM.

As to `COc1cc(OC)c(-c2c3cc(O)c(=O)cc-3oc3cc(O)c(O)cc23)cc1OC`, the AC40 is 1.57 µM.

For the compound `S=C(NCCCc1ccccc1)Nc1ccccc1Cl`, the AC40 is 5.29 µM.

For `O=C(Oc1ccc(N(C(=O)c2ccncc2)S(=O)(=O)c2ccc(Cl)cc2)cc1)c1ccncc1`, the AC40 is 0.978 µM.

As to `Cc1n[nH]c(C)c1N=Nc1ccc(Br)cc1`, the AC40 is 1.76 µM.

In the case of `O=C(NNC(=O)c1cc(Cl)ccc1O)c1cccc(S(=O)(=O)N2CCOCC2)c1`, the AC40 was 3.31 µM.

`CCN=c1scc(C)n1/N=C/c1ccc(O)c(O)c1O`: the AC40 was 7.51 µM.

`O=C(O)c1ccc(N/N=C/C2=C(N3CCOCC3)C(=C\c3ccccc3)/CC2)cc1`: the AC40 is 5.01 µM.

As for `CC(C)n1cnc2c(NCc3ccccc3)cc(Cc3ccc(F)cc3)cc21`, the AC40 is 3.4 µM.

For the compound `CC(C)c1cc(-c2cc(C(=O)NCc3ccccc3)on2)nc(NCC2CC2)n1`, the AC40 was 7.9 µM.

For the compound `Cc1onc(-c2c(Cl)cccc2Cl)c1C(=O)N/N=C(\N)COc1ccc(Cl)cc1`, the AC40 is 2.55 µM.

Consider `O=C1/C(=C/c2cccs2)SC(=S)N1NS(=O)(=O)c1ccccc1`, for which the AC40 was 3.71 µM.

As for `c1cncc(-c2nnc(-c3cccnc3)nn2)c1`, the AC40 is 8.28 µM.

Consider `CCn1c(=O)oc2cc(NC(=O)CCl)ccc21`, for which the AC40 was 18.2 µM.

As to `C[C@H](O)[C@H]1CC[C@H]2[C@@H]3CCC4=CC(=O)CC[C@]4(C)[C@H]3CC[C@]12C`, the AC40 is 2.05 µM.

Consider `Clc1ccc(OCc2nc(-c3ccncc3)no2)c(Br)c1`, for which the AC40 is 0.95 µM.

`CCCCCCCN1N=C(C)C(C(=O)c2ccccc2)C1=O` (stereo not drawn): the AC40 was 0.764 µM.

With `COC(=O)C1CCN(C2CC(=O)N(c3cc(C)cc(C)c3)C2=O)CC1` (stereo not drawn), the AC40 is 6.63 µM.

Take `CC(=O)C1CCC2C3CC=C4CC(SC(=N)N)CCC4(C)C3CCC12C` (stereo not drawn): the AC40 is 1.66 µM.

Take `CCCCOc1ccc2c(c1)C(=O)c1cc(O)ccc1-2`: the AC40 was 1.93 µM.

In the case of `CCOC(=O)c1ccc(NC(=O)CC2OCCN(CC)C2=O)cc1` (stereo not drawn), the AC40 is 5.81 µM.

Take `Cc1ccc([C@@H]2CC=C(C(=O)O)[C@H](c3ccc(Br)cc3)N2S(=O)(=O)c2ccccc2C)cc1`: the AC40 is 5.39 µM.

In the case of `Cc1ccnc(NC(c2ccsc2)c2ccc3ccc(C)nc3c2O)c1` (stereo not drawn), the AC40 is 6.7 µM.

Turning to `O=C(NCCN1CCN(c2cccc(Cl)c2)CC1)c1ccc(CSc2nc3ccncc3[nH]2)cc1`, the AC40 was 8.35 µM.

Regarding `CCOC(=O)c1ccc(N2C(=O)CC(N(C)CCc3ccc(OC)c(OC)c3)C2=O)cc1` (stereo not drawn), the AC40 is 4.82 µM.

Take `O=C(N/N=C/c1cc(Br)ccc1O)c1ccccc1Cl`: the AC40 was 0.659 µM.

As to `O=c1[nH]cc(F)c(=O)[nH]1`, the AC40 was 9.32 µM.

`Cc1cc(/C=N/n2cnnc2)c(C)n1-c1ccc(OCc2ccc(F)cc2)cc1`: the AC40 is 0.516 µM.

Consider `Cc1ccc(NC2=C(NC(=O)c3ccccc3)C(=O)c3ccccc3C2=O)cc1Cl`, for which the AC40 was 4.15 µM.

As to `S=C(NCCCc1ccccc1)Nc1ccc(Br)cc1`, the AC40 is 4.26 µM.

For `CN(C)c1ccc(-n2cccc2/C=C/[N+](=O)[O-])cc1`, the AC40 was 1.16 µM.

For `Cc1ccc(S(=O)(=O)N/N=C\c2ccc([N+](=O)[O-])o2)cc1C`, the AC40 was 10.5 µM.

As for `N/C(Cc1ccc(Cl)cc1Cl)=N\OC(=O)c1ccccc1F`, the AC40 is 0.718 µM.

Turning to `O=C(C1CC2C=CC1C2)N1CCN(c2ccccc2)CC1` (stereo not drawn), the AC40 was 3.11 µM.

On to `Cc1cc(-c2ccccc2)n(-c2cc(N/N=C/c3ccccc3O)ncn2)n1`, for which the AC40 was > 19.5 µM (inactive).

As for `COc1ccc(N=N/C(=C\O)C(=O)c2cccs2)cc1`, the AC40 was 1.32 µM.

On to `Cc1nc2c(nc1C)C(=O)c1ccccc1C2=O`, for which the AC40 is 13 µM.

Regarding `CCC(=O)NC(c1cc(Cl)c2cccnc2c1O)C(C)C` (stereo not drawn), the AC40 is 3.15 µM.

On to `COc1ccc(CNC(=O)c2c(C)oc3c2C(=O)c2ccccc2C3=O)cc1`, for which the AC40 was 8.26 µM.

As for `CCc1ccc(NC(=O)CSc2ccc(-c3ccccn3)nn2)cc1`, the AC40 is 0.968 µM.

`O=C(CSc1ccc(-c2ccccn2)nn1)N1CCCc2ccccc21`: the AC40 is 4.75 µM.

As to `C=CS(=O)(=O)c1sc(Cl)c(N2CCOCC2)c1[N+](=O)[O-]`, the AC40 was 0.653 µM.

With `Cc1ccc(Nc2c(-c3ccccc3O)nc3cnccn23)cc1`, the AC40 was 8.08 µM.

With `CC1CCCCC1NC(=O)/C(C#N)=C/c1ccccc1F` (stereo not drawn), the AC40 was 2.04 µM.

Turning to `COc1cccc(C(=O)N/N=C(/c2ccccc2)c2ccccn2)c1`, the AC40 was 3.84 µM.

As for `O=C(NNC(=O)c1cc(Cl)ccc1O)c1ccc(NS(=O)(=O)c2cccs2)cc1`, the AC40 was 5.75 µM.

Turning to `O=C(CSc1ccc(-c2ccccn2)nn1)N1CCc2ccccc21`, the AC40 was 10.2 µM.

(Values after PubChem BioAssay AID624258 (Broad Institute, 2012).)
